Experimental data reported in ChEMBL document CHEMBL1955805, “New aromatase inhibitors from the 3-pyridyl arylether and 1-aryl pyrrolo[2,3-c]pyridine series” (Bioorg Med Chem Lett, 2012).
Each block holds one compound with its values, some of them ahead of it.

What was measured:
aromatase (CYP19) = target: T1, aromatase (CYP19) (Homo sapiens, UniProt P11511); test: Inhibition of human aromatase coexpressed with P450 reductase at 1 uM by fluorimetry; settings: recombinant human aromatase coexpressed with P450 reductase
T1 sequence (P11511 whole entry): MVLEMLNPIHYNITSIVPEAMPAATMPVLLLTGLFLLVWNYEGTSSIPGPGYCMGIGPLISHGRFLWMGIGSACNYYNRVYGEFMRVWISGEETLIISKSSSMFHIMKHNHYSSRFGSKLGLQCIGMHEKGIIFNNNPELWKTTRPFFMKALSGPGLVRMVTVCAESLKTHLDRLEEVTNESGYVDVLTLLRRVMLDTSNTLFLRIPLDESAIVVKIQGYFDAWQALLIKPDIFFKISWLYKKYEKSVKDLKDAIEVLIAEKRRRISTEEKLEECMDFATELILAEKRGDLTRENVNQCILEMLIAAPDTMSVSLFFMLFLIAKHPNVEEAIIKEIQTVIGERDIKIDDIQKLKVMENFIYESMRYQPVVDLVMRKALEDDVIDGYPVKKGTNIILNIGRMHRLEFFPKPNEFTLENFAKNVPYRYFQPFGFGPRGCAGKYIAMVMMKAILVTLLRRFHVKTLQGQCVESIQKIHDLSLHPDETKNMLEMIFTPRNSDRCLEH

Aromatase = target: T2, Aromatase (Homo sapiens, UniProt P11511); test: Inhibition of human aromatase coexpressed with P450 reductase by fluorimetry
T2 sequence (P11511 whole entry): T1 sequence (P11511 whole entry)

Homo sapiens [1] = organism: Homo sapiens; test: Selectivity ratio of IC50 for CYP2C9 to IC50 for human aromatase
Homo sapiens [2] = organism: Homo sapiens; test: Selectivity ratio of IC50 for CYP3A4 to IC50 for human aromatase
Homo sapiens [3] = organism: Homo sapiens; test: Selectivity ratio of IC50 for CYP2D6 to IC50 for human aromatase

SMILES: CN1CCN(c2cc(Oc3cccnc3)ccc2C#N)CC1
inhibition at 1 µM (aromatase (CYP19)): 8%

SMILES: N#Cc1ccc(Oc2cccnc2)cc1C#N
inhibition at 1 µM (aromatase (CYP19)): 27% | IC50 (Aromatase): 5030 nM

SMILES: Clc1ccc(-n2ccc3ccncc32)cc1
inhibition at 1 µM (aromatase (CYP19)): 85% | IC50 (Aromatase): 523 nM

SMILES: NC(=O)c1ccc(-n2ccc3ccncc32)cc1
inhibition at 1 µM (aromatase (CYP19)): 60%

SMILES: N#Cc1ccc(Oc2cccnc2)cc1
inhibition at 1 µM (aromatase (CYP19)): 70% | IC50 (Aromatase): 289 nM

SMILES: Ic1ccc(-n2ccc3ccncc32)cc1
inhibition at 1 µM (aromatase (CYP19)): 26%

SMILES: N#Cc1ccc(Oc2ccncc2)cc1
inhibition at 1 µM (aromatase (CYP19)): 53%

SMILES: N#Cc1ccc(Oc2cccnc2)cc1NC1CCCCC1
inhibition at 1 µM (aromatase (CYP19)): 33%

SMILES: Cc1cc(-n2ccc3ccncc32)ccc1Cl
inhibition at 1 µM (aromatase (CYP19)): 96% | IC50 (Aromatase): 59 nM

SMILES: N#Cc1ccc(Oc2cccnc2)c(F)c1
inhibition at 1 µM (aromatase (CYP19)): 52%

SMILES: N#Cc1ccc(Oc2cccnn2)cc1
inhibition at 1 µM (aromatase (CYP19)): 1%

SMILES: Brc1ccc(-n2ccc3ccncc32)cc1
inhibition at 1 µM (aromatase (CYP19)): 56%

SMILES: Cc1cc(-n2ccc3ccncc32)ccc1C#N
inhibition at 1 µM (aromatase (CYP19)): > 99%

SMILES: N#Cc1ccc(-n2ccc3ccncc32)cc1
Ratio IC50 (Homo sapiens [1]): > 200 | inhibition at 1 µM (aromatase (CYP19)): 94% | IC50 (Aromatase): 93 nM | Ratio IC50 (Homo sapiens [2]): > 200 | Ratio IC50 (Homo sapiens [3]): > 200

SMILES: N#Cc1ccc(Cn2cncn2)cc1
inhibition at 1 µM (aromatase (CYP19)): 88%

Now from value to compound:

inhibition at 1 µM (aromatase (CYP19)): 78%
SMILES: N#Cc1ccc(Oc2cccnc2)cc1Oc1ccccc1

inhibition at 1 µM (aromatase (CYP19)): 15%
SMILES: N#Cc1ccc(Oc2cccnc2)cc1F

inhibition at 1 µM (aromatase (CYP19)): 82%
SMILES: N#Cc1ccc(Oc2cccnc2)c(Oc2cccnc2)c1

inhibition at 1 µM (aromatase (CYP19)): 84%
SMILES: COc1ccc(Oc2cc(Oc3cccnc3)ccc2C#N)cc1

inhibition at 1 µM (aromatase (CYP19)): 58% | IC50 (Aromatase): 986 nM
SMILES: N#Cc1ccc(Oc2cccnc2)cc1NCc1ccccc1

inhibition at 1 µM (aromatase (CYP19)): 25%
SMILES: N#Cc1ccc(Oc2cccnc2)cc1Oc1cccc(Cl)c1

inhibition at 1 µM (aromatase (CYP19)): 81% | IC50 (Aromatase): 304 nM
SMILES: N#Cc1ccc(Oc2cccnc2)cc1Oc1cccnc1

inhibition at 1 µM (aromatase (CYP19)): 89% | IC50 (Aromatase): 229 nM
SMILES: N#Cc1ccc(Oc2cccnc2)c(Oc2cccc(Cl)c2)c1

inhibition at 1 µM (aromatase (CYP19)): 97% | IC50 (Aromatase): 114 nM
SMILES: N#Cc1ccc(-n2ccc3ccncc32)cc1Oc1ccccc1
